Reference: patent US20250262297A1, “ALLERGY ANTIGEN AND EPITOPE THEREOF” (HOYU CO., LTD., priority 2017, published 2025)

Tests used:
Assay type in all cases: binding, human
[1] = system: IgE antibody present in the serum of a patient allergic to a soybean; assay: Epitope mapping and overlapping peptide fragments on SPOT membrane, immunoblotting; details: procedure of (B), overlapping
Protocol: Epitope mapping was carried out using a library of overlapping peptide fragments (length: 15 amino acids) corresponding to the sequences of proteins bound patient-specifically to IgE antibodies in serum, which were obtained as a result of 2D-western of soybeans.
The peptides to be synthesized were shifted by 10 amino acids.
For preparation of peptide arrays, peptide synthesis of interest was carried out in incremental steps on a modified cellulose membrane by the Intavis SPOT synthesis technique, which is a technique of synthesizing peptides of interest through 9-fluorenylmethoxycarbonyl (Fmoc) chemical reaction, using an automated synthesis apparatus (Intavis MultiPep RS). […]
The presence or absence of binding, to each peptide fragment, of an IgE antibody present in the serum of a patient allergic to a soybean was measured by immunoblotting using the membrane on which the peptide fragments were synthesized by SPOT. […]
Thereafter, for the sequences of peptides bound patient-specifically to IgE antibodies in serum in the epitope mapping described above in (A), a library of overlapping peptide fragments (length: 10 amino acids) was obtained as sequences having the sequences of these peptides as well as additional sequences subsequent to the peptides in the amino acid sequences of antigen proteins on which the epitopes were detected. […]

[2] = system: IgE antibody from one patient having allergies to a soybean, a peach and an apple; assay: ELISA of biotinylated peptides, study on cross-reactivity; details: FIG. 6
Protocol: The binding activity of peptides comprising the amino acid sequences of SEQ ID NOS: 871, 984 and 985 against an IgE antibody from one patient having allergies to a soybean, a peach and an apple was confirmed by ELISA. The peptides were synthesized such that the peptides were N-terminally biotinylated by the Fmoc method.
To be specific, ELISA was carried out according to the following procedure. • (1) The concentrations of the biotinylated peptides were adjusted to 1 μg/mL with PBST. • (2) Each peptide solution was added at 40 μL to each well of a 384-well plate coated with streptavidin, and shaken at room temperature for one hour. After collection of the solution, the wells were washed with PBS five times. • (3) A 1:5 dilution of Blocking one (diluted with MQ) was added at 40 μL thereto and shaken at room temperature for 15 minutes. After removal of the solution, the wells were washed with PBS five times. • (4) A diluted serum solution (1:10, diluting solution: Blocking one produced by Nacalai Tesque, Inc.) was added at 40 μL thereto and shaken at room temperature for one hour. After removal of the solution, the wells were washed with PBS five times. • (5) A diluted secondary antibody solution (1:5000, diluting solution: Blocking one produced by Nacalai Tesque, Inc.) was added at 40 μL thereto and shaken at room temperature for one hour. […] Absorbance at 450 nm was measured.

[3] = system: IgE antibodies from soybean-allergic patients; assay: Immunoblotting of two-dimensional electrophoresis pattern of soybean proteins with patient serum; details: spot in 2D electrophoresis gel of soybean proteins; patient serum compared with healthy subject serum
Text: Transfer to membrane was done using the following transfer system and transfer buffer. • Transfer system: XCell SureLock Mini-Cell and XCell II Blot Module (produced by Life Technologies) • Transfer buffer: NuPAGE Transfer Buffer (X20) (produced by Life Technologies), used in a form diluted 20-fold with milliQ water.
To be specific, proteins in the two-dimensional electrophoresis gels were transferred to a membrane (PVDF membrane) according to the following procedure. • (1) The PVDF membrane was immersed in 100% methanol followed by milliQ water, and then moved into the transfer buffer to hydrophilize the PVDF membrane. • (2) After sponge, filter paper, the gels treated by second-dimensional SDS-PAGE, the hydrophilized PVDF membrane, filter paper, and sponge were put in place in this order, the transfer system was energized at a constant voltage of 30 V for one hour.
Immunoblotting of the membrane was carried out using, as a primary antibody, a serum sample from a patient with a soybean allergy or a serum sample from a healthy subject.
Immunoblotting of the membrane was carried out according to the following procedure. • (1) The transferred membrane was shaken in a 5% skim milk/PBST solution (a PBS buffer containing 0.3% Tween 20 nonionic surfactant) at room temperature for one hour. • (2) The membrane was left to stand in a solution of 3% primary antibody serum in 5% skim milk/PBST at room temperature for one hour. • (3) The membrane was washed with a PBST solution (5 min.×3 times). • (4) The membrane was left to stand in a 1:2500 dilution of the secondary antibody, anti-human IgE-HRP (horseradish peroxidase), with a 3% skim milk/PBST solution at room temperature for one hour. • (5) The membrane was washed with a PBST solution (5 min.×3 times). • (6) The membrane was left to stand in Pierce Western Blotting Substrate Plus (produced by Thermo Fisher Scientific) for 5 minutes.
The membrane obtained through the foregoing series of treatments was subjected to fluorescent image scanning on Typhoon 9400 (produced by GE).
The immunoblots obtained with the serum from the soybean-allergic patient were compared with those obtained with the control serum from the healthy subject.

Row | Substance | specific binding to IgE antibodies from soybean-allergic patients [3] | further results
1 | SEQ ID NO: 871: amino acids 1-15 of SEQ ID NO: 495 (seed biotin-containing protein SBP65-like isoform X1) (MASEQMPRRENNSNR; epitope) | – | identified as epitope (common sequence of peptides bound to IgE antibodies from allergic patients) [1]: identified as epitopes; binding to IgE antibody from the allergic patient compared with IgE antibody from a healthy subject [2]: bound more strongly; binding activity against the IgE antibody from the patient ([2]; peptide 1 μg/mL, serum 1:10, absorbance at 450 nm): exhibited binding activity
2 | UTP-glucose-1-phosphate uridylyltransferase [Spot 15α] | specific binding | –
3 | elongation factor 1-alpha [Spot 35α] | specific binding | –
4 | embryo-specific urease isoform X1 [Spot 4α] | specific binding | –
5 | glyceraldehyde-3-phosphate dehydrogenase isoform X1 [Spot 29α] | specific binding | –
6 | heat shock cognate protein 80 [Spot 2α] | specific binding | –
7 | lysine-tRNA ligase, cytoplasmic-like isoform X2 [Spot 9α] | specific binding | –
8 | methionine synthase [Spot 7α] | specific binding | –
9 | pyrophosphate-fructose 6-phosphate 1-phosphotransferase subunit alpha-like [Spot 12α] | specific binding | –
10 | seed biotin-containing protein SBP65-like isoform X1 [Spot 38α] | specific binding | –
